How the values were obtained:
MLLT1 = target: T1, MLLT1 (Homo sapiens, UniProt Q03111); assay: MLLT1 degradation assay in MV4-11 cells (JESS chemiluminescent detection), three concentrations, 24 h; format: cell-based; details: with respect to DMSO control
T1 construct: host or cells: MV4-11
T1 sequence (Q03111 1-559): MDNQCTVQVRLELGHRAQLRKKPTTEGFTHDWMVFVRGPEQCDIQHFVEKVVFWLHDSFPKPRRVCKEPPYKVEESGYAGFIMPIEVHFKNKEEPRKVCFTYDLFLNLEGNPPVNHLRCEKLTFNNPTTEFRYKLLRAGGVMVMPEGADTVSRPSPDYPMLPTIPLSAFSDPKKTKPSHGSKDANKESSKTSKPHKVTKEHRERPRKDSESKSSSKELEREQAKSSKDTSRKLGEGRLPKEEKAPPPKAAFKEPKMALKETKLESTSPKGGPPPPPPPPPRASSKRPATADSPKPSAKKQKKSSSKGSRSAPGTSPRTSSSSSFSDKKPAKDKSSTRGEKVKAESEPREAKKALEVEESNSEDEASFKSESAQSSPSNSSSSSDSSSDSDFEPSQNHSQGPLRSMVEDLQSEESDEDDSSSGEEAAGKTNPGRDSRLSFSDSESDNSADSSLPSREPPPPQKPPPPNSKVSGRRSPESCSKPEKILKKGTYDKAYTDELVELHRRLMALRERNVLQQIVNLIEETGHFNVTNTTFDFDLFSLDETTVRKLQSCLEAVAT
Method in brief: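 Read-out is % MLLT1 degradation versus DMSO, from band peak areas on a JESS chemiluminescent system. Cells (MV4-11) were exposed for 24 h at 37° C to three compound levels, 10, 100 and 1000 nM, in 0.1% DMSO.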

MV4-11 cells = assay: MV4-11 cellular proliferative assay, Assay Format B (CTG 2.0, 168 h); format: cell-based; details: Homo sapiens, 168 h (7 days), CTG 2.0, read-out: IC50 (MV4-11 cellular proliferative assay, Assay format B)
Method in brief: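 Viability read by CellTiter-Glo 2.0 luminescence after 7-day (168 h) compound exposure of MV4-11 cells in IMDM/10% FBS. Ten 3-fold concentrations starting at 1 uM or 100 nM, 0.3% final DMSO; curves normalised to DMSO control, four-parameter fit.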

| SMILES | MLLT1% Degradation @ 0.01 μM (MLLT1) | MLLT1% Degradation @ 0.1 μM (MLLT1) | MLLT1% Degradation @ 1 μM (MLLT1) | IC50 (MV4-11 cells) |
| --- | --- | --- | --- | --- |
| CN1CCC[C@@H]1c1cc2cnc(NC(=O)c3ccc(N4CCN(Cc5ccc(-c6cccc7c6CN(C6CCC(=O)NC6=O)C7=O)cc5)CC4)nc3)cc2[nH]1 (stereo partly drawn) [Example 129, 6-(4-(4-(2-(2,6-dioxopiperidin-3-yl)-1-oxoisoindolin-4-yl)benzyl)piperazin-1-yl)-N-(2-((R)-1-methylpyrrolidin-2-yl)-1H-pyrrolo[3,2-c]pyridin-6-yl)nicotinamide] | B (Category B: 50% ≤ B < 75% degradation) | B (Category B: 50% ≤ B < 75% degradation) | C (Category C: 25% ≤ C < 50% degradation) | ≤ 100 nM |
| CN1CCC[C@@H]1c1[nH]c2cc(NC(=O)c3ccc(N4CCC(OCC5CCN(c6cccc7c6CN(C6CCC(=O)NC6=O)C7=O)CC5)CC4)nc3)ncc2c1Cl (stereo partly drawn) [Example 191, N-(3-chloro-2-((R)-1-methylpyrrolidin-2-yl)-1H-pyrrolo[3,2-c]pyridin-6-yl)-6-(4-((1-(2-(2,6-dioxopiperidin-3-yl)-1-oxoisoindolin-4-yl)piperidin-4-yl)methoxy)piperidin-1-yl)nicotinamide] | A (Category A: A ≥ 75% degradation) | A (Category A: A ≥ 75% degradation) | A (Category A: A ≥ 75% degradation) | ≤ 100 nM |
| CN1CCC[C@@H]1c1cc2cnc(NC(=O)c3ccc(CCCC#Cc4cccc5c4CN(C4CCC(=O)NC4=O)C5=O)c(F)c3)cc2[nH]1 (stereo partly drawn) [Example 93, 4-(5-(2-(2,6-dioxopiperidin-3-yl)-1-oxoisoindolin-4-yl)pent-4-yn-1-yl)-3-fluoro-N-(2-((R)-1-methylpyrrolidin-2-yl)-1H-pyrrolo[3,2-c]pyridin-6-yl)benzamide] | A (Category A: A ≥ 75% degradation) | A (Category A: A ≥ 75% degradation) | A (Category A: A ≥ 75% degradation) | ≤ 100 nM |
| Cc1cc(C2CCN(c3ccc(C(=O)Nc4cc5[nH]c([C@H]6CCCN6C)cc5cn4)cn3)CC2)ccc1-c1cccc2c1CN(C1CCC(=O)NC1=O)C2=O (stereo partly drawn) [Example 99, 6-(4-(4-(2-(2,6-dioxopiperidin-3-yl)-1-oxoisoindolin-4-yl)-3-methylphenyl)piperidin-1-yl)-N-(2-((R)-1-methylpyrrolidin-2-yl)-1H-pyrrolo[3,2-c]pyridin-6-yl)nicotinamide] | B (Category B: 50% ≤ B < 75% degradation) | A (Category A: A ≥ 75% degradation) | A (Category A: A ≥ 75% degradation) | ≤ 100 nM |
| CN1CCC[C@@H]1c1cc2cnc(NC(=O)c3ccc(-c4cnn(CCCC5CCN(c6cccc(C(=O)N[C@H]7CCC(=O)NC7=O)n6)CC5)c4)cc3)cc2[nH]1 [Example 60, N—((S)-2,6-dioxopiperidin-3-yl)-6-(4-(3-(4-(4-((2-((R)-1-methylpyrrolidin-2-yl)-1H-pyrrolo[3,2-c]pyridin-6-yl)carbamoyl)phenyl)-1H-pyrazol-1-yl)propyl)piperidin-1-yl)picolinamide] | A (Category A: A ≥ 75% degradation) | A (Category A: A ≥ 75% degradation) | A (Category A: A ≥ 75% degradation) | ≤ 100 nM |
| CN1CCC[C@@H]1c1cc2cnc(NC(=O)c3ccc(CCCCC#Cc4cccc(C(=O)N[C@H]5CCC(=O)NC5=O)n4)cc3)cc2[nH]1 [Example 7, N—((S)-2,6-dioxopiperidin-3-yl)-6-(6-(4-((2-((R)-1-methylpyrrolidin-2-yl)-1H-pyrrolo[3,2-c]pyridin-6-yl)carbamoyl)phenyl)hex-1-yn-1-yl)picolinamide] | A (Category A: A ≥ 75% degradation) | A (Category A: A ≥ 75% degradation) | A (Category A: A ≥ 75% degradation) | ≤ 100 nM |
| CN1CCC[C@@H]1c1cc2cnc(NC(=O)c3cccc(CCCC#Cc4cccc5c4CN(C4CCC(=O)NC4=O)C5=O)c3)cc2[nH]1 (stereo partly drawn) [Example 95, 3-(5-(2-(2,6-dioxopiperidin-3-yl)-1-oxoisoindolin-4-yl)pent-4-yn-1-yl)-N-(2-((R)-1-methylpyrrolidin-2-yl)-1H-pyrrolo[3,2-c]pyridin-6-yl)benzamide] | A (Category A: A ≥ 75% degradation) | A (Category A: A ≥ 75% degradation) | A (Category A: A ≥ 75% degradation) | ≤ 100 nM |
| CN1CCC[C@@H]1c1cc2cnc(NC(=O)c3ccc(OC4CCN(CC5CCN(c6cccc7c6C(=O)N(C6CCC(=O)NC6=O)C7=O)CC5)CC4)cc3)cc2[nH]1 (stereo partly drawn) [Example 144, 4-((1-((1-(2-(2,6-dioxopiperidin-3-yl)-1,3-dioxoisoindolin-4-yl)piperidin-4-yl)methyl)piperidin-4-yl)oxy)-N-(2-((R)-1-methylpyrrolidin-2-yl)-1H-pyrrolo[3,2-c]pyridin-6-yl)benzamide] | B (Category B: 50% ≤ B < 75% degradation) | A (Category A: A ≥ 75% degradation) | A (Category A: A ≥ 75% degradation) | ≤ 100 nM |
| CN1CCC[C@@H]1c1cc2cnc(NC(=O)c3ccc(N4CCN(CC5CCN(c6ccc7c(c6)n(C)c(=O)n7C6CCC(=O)NC6=O)CC5)CC4)cc3)cc2[nH]1 (stereo partly drawn) [Example 170, 4-(4-((1-(1-(2,6-dioxopiperidin-3-yl)-3-methyl-2-oxo-2,3-dihydro-1H-benzo[d]imidazol-5-yl)piperidin-4-yl)methyl)piperazin-1-yl)-N-(2-((R)-1-methylpyrrolidin-2-yl)-1H-pyrrolo[3,2-c]pyridin-6-yl)benzamide] | A (Category A: A ≥ 75% degradation) | A (Category A: A ≥ 75% degradation) | A (Category A: A ≥ 75% degradation) | ≤ 100 nM |
| CN1CCC[C@@H]1c1cc2cnc(NC(=O)c3ccc(OCCN4CCC5(CC4)CCN(c4ccc6c(c4)CN(C4CCC(=O)NC4=O)C6=O)CC5)cc3)cc2[nH]1 (stereo partly drawn) [Example 164, 4-(2-(9-(2-(2,6-dioxopiperidin-3-yl)-1-oxoisoindolin-5-yl)-3,9-diazaspiro[5.5]undecan-3-yl)ethoxy)-N-(2-((R)-1-methylpyrrolidin-2-yl)-1H-pyrrolo[3,2-c]pyridin-6-yl)benzamide] | A (Category A: A ≥ 75% degradation) | A (Category A: A ≥ 75% degradation) | A (Category A: A ≥ 75% degradation) | ≤ 100 nM |

Source: patent publication US20260191968A1, “PROTAC DEGRADERS OF MLLT1 AND/OR MLLT3” (DARK BLUE THERAPEUTICS LTD, priority 2024, published 2026)
